{
  "source": "PubChem BioAssay (NCI)",
  "assay_in_all_cases": "DTP human tumour cell line panel, 384-well format",
  "key": {"[1]": {"tested_on": "NCI-H226 lung"}, "[2]": {"tested_on": "NCI-H23 lung"}, "[3]": {"tested_on": "NCI-H322M lung"}, "[4]": {"tested_on": "NCI-H460 NSCLC"}, "[5]": {"tested_on": "NCI-H522 lung"}, "[6]": {"tested_on": "NCI/ADR-RES ovarian"}, "[7]": {"tested_on": "OVCAR-3 ovarian"}, "[8]": {"tested_on": "OVCAR-4 ovarian"}, "[9]": {"tested_on": "OVCAR-8 ovarian"}, "[10]": {"tested_on": "PC-3 prostate"}, "[11]": {"tested_on": "RPMI-8226 leukemia"}, "[12]": {"tested_on": "RXF 393 renal"}, "[13]": {"tested_on": "SF-268 CNS"}, "[14]": {"tested_on": "SF-539 CNS"}, "[15]": {"tested_on": "SK-MEL-28 melanoma"}, "[16]": {"tested_on": "SK-MEL-5 melanoma"}, "[17]": {"tested_on": "SK-OV-3 ovarian"}, "[18]": {"tested_on": "SN12C renal"}, "[19]": {"tested_on": "SNB-19 CNS"}, "[20]": {"tested_on": "SNB-75 CNS"}, "[21]": {"tested_on": "SR leukemia"}, "[22]": {"tested_on": "SW-620 colon"}, "[23]": {"tested_on": "T-47D breast"}, "[24]": {"tested_on": "TK-10 renal"}, "[25]": {"tested_on": "U251 glioblastoma"}, "[26]": {"tested_on": "UACC-257 melanoma"}, "[27]": {"tested_on": "UACC-62 melanoma"}, "[28]": {"tested_on": "UO-31 renal"}},
  "note": "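GI50: concentration for 50% inhibition of growth. TGI: concentration producing complete growth inhibition.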",
  "data": [
    {"smiles": "COc1cc(OC)cc(N2CCN(C(=O)Nc3nc4cc(F)ccc4nc3OC)CC2)c1", "values": [
      {"measurement": "GI50", "setting": "[1]", "value": 18.6, "unit": "nM"},
      {"measurement": "TGI", "setting": "[1]", "value": 70.8, "unit": "nM"},
      {"measurement": "GI50", "setting": "[2]", "value": 20.7, "unit": "nM"},
      {"measurement": "TGI", "setting": "[2]", "value": 55.4, "unit": "nM"},
      {"measurement": "GI50", "setting": "[3]", "value": 64, "unit": "nM"},
      {"measurement": "TGI", "setting": "[3]", "value": 37600, "unit": "nM"},
      {"measurement": "GI50", "setting": "[4]", "value": 21.1, "unit": "nM"},
      {"measurement": "TGI", "setting": "[4]", "value": 48.7, "unit": "nM"},
      {"measurement": "GI50", "setting": "[5]", "value": "< 10", "unit": "nM"},
      {"measurement": "TGI", "setting": "[5]", "value": 22, "unit": "nM"},
      {"measurement": "GI50", "setting": "[6]", "value": 14, "unit": "nM"},
      {"measurement": "TGI", "setting": "[6]", "value": 32.1, "unit": "nM"},
      {"measurement": "GI50", "setting": "[7]", "value": 12.1, "unit": "nM"},
      {"measurement": "TGI", "setting": "[7]", "value": 31.4, "unit": "nM"},
      {"measurement": "GI50", "setting": "[8]", "value": 314, "unit": "nM"},
      {"measurement": "TGI", "setting": "[8]", "value": 31700, "unit": "nM"},
      {"measurement": "GI50", "setting": "[9]", "value": 27.6, "unit": "nM"},
      {"measurement": "TGI", "setting": "[9]", "value": 91.2, "unit": "nM"},
      {"measurement": "GI50", "setting": "[10]", "value": 25.4, "unit": "nM"},
      {"measurement": "TGI", "setting": "[10]", "value": 15200, "unit": "nM"},
      {"measurement": "GI50", "setting": "[11]", "value": 17, "unit": "nM"},
      {"measurement": "TGI", "setting": "[11]", "value": 31.8, "unit": "nM"},
      {"measurement": "GI50", "setting": "[12]", "value": "< 10", "unit": "nM"},
      {"measurement": "TGI", "setting": "[12]", "value": 21.9, "unit": "nM"},
      {"measurement": "GI50", "setting": "[13]", "value": 30.4, "unit": "nM"},
      {"measurement": "TGI", "setting": "[13]", "value": 415, "unit": "nM"},
      {"measurement": "GI50", "setting": "[14]", "value": 18.2, "unit": "nM"},
      {"measurement": "TGI", "setting": "[14]", "value": 49.5, "unit": "nM"},
      {"measurement": "GI50", "setting": "[15]", "value": 120, "unit": "nM"},
      {"measurement": "TGI", "setting": "[15]", "value": 22300, "unit": "nM"},
      {"measurement": "GI50", "setting": "[16]", "value": 13.1, "unit": "nM"},
      {"measurement": "TGI", "setting": "[16]", "value": 45.3, "unit": "nM"},
      {"measurement": "GI50", "setting": "[17]", "value": 35.1, "unit": "nM"},
      {"measurement": "TGI", "setting": "[17]", "value": 11700, "unit": "nM"},
      {"measurement": "GI50", "setting": "[18]", "value": 28, "unit": "nM"},
      {"measurement": "TGI", "setting": "[18]", "value": 16200, "unit": "nM"},
      {"measurement": "GI50", "setting": "[19]", "value": 36.3, "unit": "nM"},
      {"measurement": "TGI", "setting": "[19]", "value": 12800, "unit": "nM"},
      {"measurement": "GI50", "setting": "[20]", "value": 23.4, "unit": "nM"},
      {"measurement": "TGI", "setting": "[20]", "value": 127, "unit": "nM"},
      {"measurement": "GI50", "setting": "[21]", "value": "< 10", "unit": "nM"},
      {"measurement": "GI50", "setting": "[22]", "value": 36.5, "unit": "nM"},
      {"measurement": "TGI", "setting": "[22]", "value": 18800, "unit": "nM"},
      {"measurement": "GI50", "setting": "[23]", "value": 55.4, "unit": "nM"},
      {"measurement": "TGI", "setting": "[23]", "value": 19600, "unit": "nM"},
      {"measurement": "GI50", "setting": "[24]", "value": 57.1, "unit": "nM"},
      {"measurement": "TGI", "setting": "[24]", "value": 23100, "unit": "nM"},
      {"measurement": "GI50", "setting": "[25]", "value": 32.7, "unit": "nM"},
      {"measurement": "TGI", "setting": "[25]", "value": 12100, "unit": "nM"},
      {"measurement": "GI50", "setting": "[26]", "value": 37.2, "unit": "nM"},
      {"measurement": "TGI", "setting": "[26]", "value": 20100, "unit": "nM"},
      {"measurement": "GI50", "setting": "[27]", "value": "< 10", "unit": "nM"},
      {"measurement": "TGI", "setting": "[27]", "value": 15000, "unit": "nM"},
      {"measurement": "GI50", "setting": "[28]", "value": 51.3, "unit": "nM"},
      {"measurement": "TGI", "setting": "[28]", "value": 18300, "unit": "nM"}
    ]}
  ]
}
